Assay results: ChEMBL document CHEMBL1201862, “PubChem BioAssay data set” (2004)
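Assay format: 96-well plates, 48-hour exposure. GI50: concentration for 50% inhibition of growth.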 Active and inactive are the calls of the source. Cut-off read from the data, not from the text of the source: active = GI50 up to about 1.1 µM and inactive = higher.

Legend:
Assay in all cases: DTP human tumour cell line panel, 48 h
786-0 = test system: 786-0
A498 = test system: A498
A549 = test system: A549
ACHN = test system: ACHN
CAKI-1 = test system: CAKI-1
CCRF-CEM = test system: CCRF-CEM
COLO 205 = test system: COLO 205
DLD-1 = test system: DLD-1
DMS-114 = test system: DMS-114
DMS-273 = test system: DMS-273
EKVX = test system: EKVX
HCC 2998 = test system: HCC 2998
HCT-116 = test system: HCT-116
HCT-15 = test system: HCT-15
HL-60 = test system: HL-60
HOP-18 = test system: HOP-18
HOP-62 = test system: HOP-62
HOP-92 = test system: HOP-92
HT-29 = test system: HT-29
IGROV-1 = test system: IGROV-1
K562 = test system: K562
KM-20L2 = test system: KM-20L2
KM12 = test system: KM12
LOX IMVI = test system: LOX IMVI
LXFL 529 = test system: LXFL 529
M14 = test system: M14
M19-MEL = test system: M19-MEL
MOLT-4 = test system: MOLT-4
Malme-3M = test system: Malme-3M
NCI-H226 = test system: NCI-H226
NCI-H23 = test system: NCI-H23
NCI-H460 = test system: NCI-H460
NCI-H522 = test system: NCI-H522
OVCAR-3 = test system: OVCAR-3
OVCAR-4 = test system: OVCAR-4
OVCAR-5 = test system: OVCAR-5
OVCAR-8 = test system: OVCAR-8
RPMI-8226 = test system: RPMI-8226
RXF 393 = test system: RXF 393
RXF 631 = test system: RXF 631
SF-268 = test system: SF-268
SF-295 = test system: SF-295
SF-539 = test system: SF-539
SK-MEL-28 = test system: SK-MEL-28
SK-MEL-2 = test system: SK-MEL-2
SK-MEL-5 = test system: SK-MEL-5
SK-OV-3 = test system: SK-OV-3
SN12C = test system: SN12C
SNB-19 = test system: SNB-19
SNB-75 = test system: SNB-75
SNB-78 = test system: SNB-78
SW-620 = test system: SW-620
TK-10 = test system: TK-10
U-251 = test system: U-251
UACC-257 = test system: UACC-257
UACC-62 = test system: UACC-62
UO-31 = test system: UO-31
XF498 = test system: XF498

For Cc1c(N)nc(C(CC(N)=O)NCC(N)C(N)=O)nc1C(=O)NC(C(=O)NC(C)C(O)C(C)C(=O)NC(C(=O)NCCc1nc(-c2nc(C(=O)NCCCNCCCCN)cs2)cs1)C(C)O)C(OC1OC(CO)C(O)C(O)C1OC1OC(CO)C(O)C(OC(N)=O)C1O)c1c[nH]cn1 (stereo not drawn), the GI50 (786-0) was 4.01 µM (inactive), the GI50 (A498) was > 10 µM (inactive) and the GI50 (A549) was 4.81 µM (inactive). For the same compound, the GI50 (ACHN) was 0.00622 µM (active), the GI50 (CAKI-1) was 0.00178 µM (active) and the GI50 (CCRF-CEM) was > 10 µM (inactive). For the same compound, the GI50 (COLO 205) was > 10 µM (inactive), the GI50 (DLD-1) was > 10 µM (inactive) and the GI50 (DMS-114) was 1.85 µM (inactive). The GI50 (DMS-273) was 0.957 µM (active), the GI50 (EKVX) was > 10 µM (inactive) and the GI50 (HCC 2998) was > 10 µM (inactive). For the same compound, the GI50 (HCT-116) was 1.29 µM (inactive), the GI50 (HCT-15) was greater than 5.64 µM and the GI50 (HL-60) was > 10 µM (inactive). For the same compound, the GI50 (HOP-18) was > 10 µM (inactive), the GI50 (HOP-62) was 0.321 µM (active) and the GI50 (HOP-92) was 0.0724 µM (active). The GI50 (HT-29) was > 10 µM (inactive), the GI50 (IGROV-1) was > 10 µM (inactive) and the GI50 (K562) was > 10 µM (inactive). The GI50 (KM-20L2) was > 10 µM (inactive), the GI50 (KM12) was > 10 µM (inactive) and the GI50 (LOX IMVI) was 0.461 µM (active). The GI50 (LXFL 529) was > 10 µM (inactive), the GI50 (M14) was 1.67 µM (inactive) and the GI50 (M19-MEL) was > 10 µM (inactive). The GI50 (MOLT-4) was 2.94 µM (inactive), the GI50 (Malme-3M) was 2.07 µM (inactive) and the GI50 (NCI-H226) was 0.233 µM (active). The GI50 (NCI-H23) was 1.79 µM (inactive), the GI50 (NCI-H460) was 0.143 µM (active) and the GI50 (NCI-H522) was 2.1 µM (inactive). The GI50 (OVCAR-3) was > 6.28 µM (inactive), the GI50 (OVCAR-4) was > 6.46 µM (inactive) and the GI50 (OVCAR-5) was > 10 µM (inactive). For the same compound, the GI50 (OVCAR-8) was > 10 µM (inactive), the GI50 (RPMI-8226) was > 10 µM (inactive) and the GI50 (RXF 393) was 0.29 µM (active). For the same compound, the GI50 (RXF 631) was 0.0274 µM (active), the GI50 (SF-268) was 1.18 µM (inactive) and the GI50 (SF-295) was 0.0731 µM (active). For the same compound, the GI50 (SF-539) was 0.0655 µM (active), the GI50 (SK-MEL-28) was > 10 µM (inactive) and the GI50 (SK-MEL-2) was > 10 µM (inactive). The GI50 (SK-MEL-5) was 2.43 µM (inactive), the GI50 (SK-OV-3) was > 10 µM (inactive) and the GI50 (SN12C) was 3.56 µM (inactive). The GI50 (SNB-19) was > 10 µM (inactive), the GI50 (SNB-75) was 0.202 µM (active) and the GI50 (SNB-78) was > 10 µM (inactive). The GI50 (SW-620) was > 10 µM (inactive), the GI50 (TK-10) was > 10 µM (inactive) and the GI50 (U-251) was > 10 µM (inactive). For the same compound, the GI50 (UACC-257) was > 10 µM (inactive), the GI50 (UACC-62) was 2.71 µM (inactive) and the GI50 (UO-31) was 2.36 µM (inactive). The GI50 (XF498) was 0.0413 µM (active).
